The text below walks through data of publication PMC10179972, “New Hybrid Tetrahydropyrrolo[3,2,1-ij]quinolin-1-ylidene-2-thioxothiazolidin-4-ones as New Inhibitors of Factor Xa and Factor XIa: Design, Synthesis, and In Silico and Experimental Evaluation” (Molecules, 2023).

Where two headings read alike, the source gives them in different places.

Assay [1] has as its target T1, factor Xa (Homo sapiens, UniProt P00742).
T1 construct: followed by the addition of factor Xa (final concentration, 2.5 nmol·L^–1)
Kind of assay: Inhibition of factor Xa, kinetics of hydrolysis of chromogenic substrate S2765. In kind it is biochemical. The settings on record: for inhibition at 30 µM: 30 μM compound, factor Xa 2.5 nmol/L, S2765 200 μmol/L, pH 8.0, read-out: Percent Inhibition at 30 μM, Xa; for IC50: substrate S2765, buffer solution. As to the method:
We measured the kinetics of the hydrolysis of the specific substrates S2765 or S2366 by factors Xa and XIa, respectively, in the buffer solution and in the presence of various concentrations of compounds.
(§1) A specific low-molecular-weight chromogenic substrate, S2765 (Z-D-Arg-Gly-Arg-pNA·2HCl), was used in the case of factor Xa, while the substrate S2366 (pyroGlu-Pro-ArgpNA·HCl) (both substrates from Chromogenix, USA) was used for factor XIa.
A buffer containing 140 mM NaCl, 20 mM HEPES, and 0.1% PEG 6000 (pH 8.0) was placed in the wells of a 96-well plate, followed by the addition of factor Xa (final concentration, 2.5 nmol·L^–1) or XIa (final concentration 0.8 nmol·L^–1), the substrate S2765 (final concentration, 200 μmol·L^–1) or S2366 (final concentration, 200 μmol·L^–1), and a solution of the test compound in DMSO (final concentration, 30 μmol·L^–1; the DMSO content in the well was no more than 2%). […] The initial rate of substrate degradation was determined from the initial slope of the 4-nitroaniline-formation curve. The rate of substrate degradation by the enzyme in the presence of the inhibitor was expressed as a percentage relative to the rate of substrate degradation in the absence of the inhibitor. The data obtained were processed using GraphPad Prism and OriginPro 8 software.

Assay [2] addresses T2, factor XIa (Homo sapiens, UniProt P03951). The assay is described as follows: Inhibition of factor XIa, kinetics of hydrolysis of chromogenic substrate S2366. In kind it is biochemical. The settings on record: for inhibition at 30 µM: 30 μM compound, factor XIa 0.8 nmol/L, S2366 200 μmol/L, pH 8.0, read-out: Percent Inhibition at 30 μM, XIa; for IC50: substrate S2366, buffer solution. As to the method: Compounds 12, 14 and 16 were evaluated for their anticoagulant activity against factors Xa and Xia, and the results are presented in Table 1. For the best Xa and XIa inhibitors, additional measurements were performed to determine the IC50 values. We measured the kinetics of the hydrolysis of the specific substrates S2765 or S2366 by factors Xa and XIa, respectively, in the buffer solution and in the presence of various concentrations of compounds.
as §1
A buffer containing 140 mM NaCl, 20 mM HEPES, and 0.1% PEG 6000 (pH 8.0) was placed in the wells of a 96-well plate, followed by the addition of factor Xa (final concentration, 2.5 nmol·L^–1) or XIa (final concentration 0.8 nmol·L^–1), the substrate S2765 (final concentration, 200 μmol·L^–1) or S2366 (final concentration, 200 μmol·L^–1), and a solution of the test compound in DMSO (final concentration, 30 μmol·L^–1; the DMSO content in the well was no more than 2%). The kinetics of the formation of p-nitroaniline were measured using a THERMOmax Microplate Reader (Molecular Devices Corporation, USA) using the absorption of light with a wavelength of 405 nm. The initial rate of substrate degradation was determined from the initial slope of the 4-nitroaniline-formation curve. The rate of substrate degradation by the enzyme in the presence of the inhibitor was expressed as a percentage relative to the rate of substrate degradation in the absence of the inhibitor. The data obtained were processed using GraphPad Prism and OriginPro 8 software.

The target of assay [3] is T2, factor XIa. More on the design: method as in earlier work. The settings on record: known actives used in validation of docking protocol, ref [1]-[6] of Table S2, column Ligand ID, cited from earlier work.
The target in assay [4] is T1, factor Xa. The settings on record: cited from earlier work.

T2 sequence (P03951 388-625 limits assumed): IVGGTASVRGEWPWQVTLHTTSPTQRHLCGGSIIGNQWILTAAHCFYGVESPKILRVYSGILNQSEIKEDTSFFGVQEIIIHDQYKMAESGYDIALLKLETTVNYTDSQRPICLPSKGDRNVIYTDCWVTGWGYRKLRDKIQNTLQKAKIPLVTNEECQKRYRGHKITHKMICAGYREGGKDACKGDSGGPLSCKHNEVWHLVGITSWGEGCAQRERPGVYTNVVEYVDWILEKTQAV
T2 sequence (P03951 19-387 partner limits assumed): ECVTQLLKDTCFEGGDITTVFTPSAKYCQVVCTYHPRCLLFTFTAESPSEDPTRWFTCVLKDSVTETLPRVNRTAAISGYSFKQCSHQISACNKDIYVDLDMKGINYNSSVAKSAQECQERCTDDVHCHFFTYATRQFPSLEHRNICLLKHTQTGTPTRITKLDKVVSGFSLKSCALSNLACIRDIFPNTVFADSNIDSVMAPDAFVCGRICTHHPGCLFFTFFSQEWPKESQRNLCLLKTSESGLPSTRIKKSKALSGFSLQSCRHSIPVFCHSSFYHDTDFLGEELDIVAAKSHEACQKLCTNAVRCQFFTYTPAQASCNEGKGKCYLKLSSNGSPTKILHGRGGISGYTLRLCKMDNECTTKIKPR
T1 sequence (P00742 235-488 limits assumed): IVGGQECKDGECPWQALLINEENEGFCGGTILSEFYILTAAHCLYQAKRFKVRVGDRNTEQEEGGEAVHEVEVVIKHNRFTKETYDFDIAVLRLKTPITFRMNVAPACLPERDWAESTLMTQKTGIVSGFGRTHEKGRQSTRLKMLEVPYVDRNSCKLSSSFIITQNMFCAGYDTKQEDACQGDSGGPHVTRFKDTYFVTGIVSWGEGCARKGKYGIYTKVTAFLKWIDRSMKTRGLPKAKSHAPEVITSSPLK
T1 sequence (P00742 41-179 partner limits assumed): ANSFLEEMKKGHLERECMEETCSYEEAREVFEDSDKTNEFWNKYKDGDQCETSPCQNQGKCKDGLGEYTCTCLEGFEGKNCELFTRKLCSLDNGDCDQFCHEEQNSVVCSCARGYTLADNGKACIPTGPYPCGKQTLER

By inhibition is commonly meant how much of the control response was suppressed. Take `CCN1C(=O)/C(=C2/C(=O)N3c4c2cccc4C(C)(c2ccccc2)CC3(C)C)SC1=S` (centres unmarked) [12j, (Z)-3-Ethyl-2-thioxo-5-(4,4,6-trimethyl-2-oxo-6-phenyl-5,6-dihydro-4H-pyrrolo[3,2,1-ij]quinolin-1(2H)-ylidene)thiazolidin-4-one]: the values for the inhibition at 30 µM at factor Xa [1] and at factor XIa [2] were 89% and 77%, respectively.
The IC50 is the concentration needed to halve the response being measured. Turning to `CC1(c2ccc(Cl)cc2)CC(C)(C)N2C(=O)/C(=C3\SC(=S)NC3=O)c3cc(F)cc1c32` (centres unmarked) [12k, (Z)-5-(6-(4-Chlorophenyl)-8-fluoro-4,4,6-trimethyl-2-oxo-5,6-dihydro-4H-pyrrolo[3,2,1-ij]quinolin-1(2H)-ylidene)-2-thioxothiazolidin-4-one], on factor Xa [1], the inhibition at 30 µM worked out at 99% and 2.85 ± 0.23 µM corresponded to half-maximal inhibition (IC50). For the same compound, at factor XIa [2], the inhibition at 30 µM was 99% and half-maximal inhibition (IC50) required 5.24 ± 0.29 µM.
As to `CC1(c2ccc(Cl)cc2)CC(C)(C)N2C(=O)/C(=C3\SC(=S)NC3=O)c3cc(I)cc1c32` (centres unmarked) [12l, (Z)-5-(6-(4-Chlorophenyl)-8-iodo-4,4,6-trimethyl-2-oxo-5,6-dihydro-4H-pyrrolo[3,2,1-ij]quinolin-1(2H)-ylidene)-2-thioxothiazolidin-4-one], the inhibition at 30 µM was determined as 78% at factor Xa [1] and 95% on factor XIa [2]. For the same compound, the IC50 worked out at 2.87 ± 0.21 µM at factor Xa [1] and 4.3 ± 0.06 µM against factor XIa [2].
Regarding `CCN1C(=O)/C(=C2/C(=O)N3c4c2cc(F)cc4C(C)(c2ccc(Cl)cc2)CC3(C)C)SC1=S` (centres unmarked) [12m, (Z)-5-(6-(4-Chlorophenyl)-8-fluoro-4,4,6-trimethyl-2-oxo-5,6-dihydro-4H-pyrrolo[3,2,1-ij]quinolin-1(2H)-ylidene)-3-ethyl-2-thioxothiazolidin-4-one], the inhibition at 30 µM on factor Xa [1] is 18%; on factor XIa [2], 0%.
For `CC1(C)CC2(CCCCC2)N2C(=O)/C(=C3\SC(=S)NC3=O)c3cccc1c32` [12n, (Z)-5-(6′,6′-Dimethyl-2′-oxo-5′,6′-dihydrospiro[cyclohexane-1,4′-pyrrolo[3,2,1-ij]quinolin]-1′(2′H)-ylidene)-2-thioxothiazolidin-4-one], at factor Xa [1], the inhibition at 30 µM came to 94% and the IC50 was found to be 2.6 ± 0.5 µM. Moreover, on factor XIa [2], the inhibition at 30 µM was 91% and the IC50 turned out to be 9.41 ± 0.51 µM.
`Cc1cc2c3c(c1)C(C)CC1(CCCCC1)N3C(=O)/C2=C1\SC(=S)NC1=O` (centres unmarked) [12o, (Z)-5-(6′,8′-Dimethyl-2′-oxo-5′,6′-dihydrospiro[cyclohexane-1,4′-pyrrolo[3,2,1-ij]quinolin]-1′(2′H)-ylidene)-2-thioxothiazolidin-4-one]: the inhibition at 30 µM at factor Xa [1] was found to be 48%; on factor XIa [2], 15%.
As to `CC1CC2(CCCC2)N2C(=O)/C(=C3\SC(=S)NC3=O)c3cc(F)cc1c32` (centres unmarked) [12p, (Z)-5-(8′-Fluoro-6′-methyl-2′-oxo-5′,6′-dihydrospiro[cyclopentane-1,4′-pyrrolo[3,2,1-ij]quinolin]-1′(2′H)-ylidene)-2-thioxothiazolidin-4-one], at factor Xa [1], the inhibition at 30 µM is 67% and the IC50 was 3.03 ± 0.18 µM. At factor XIa [2], the inhibition at 30 µM was found to be 77% and the IC50 is 12.2 ± 0.5 µM.
As for `CC1CC2(CCCCCC2)N2C(=O)/C(=C3\SC(=S)NC3=O)c3cc(F)cc1c32` (centres unmarked) [12q, (Z)-5-(8′-Fluoro-6′-methyl-2′-oxo-5′,6′-dihydrospiro[cycloheptane-1,4′-pyrrolo[3,2,1-ij]quinolin]-1′(2′H)-ylidene)-2-thioxothiazolidin-4-one], at factor Xa [1], the inhibition at 30 µM was 47%. At factor XIa [2], the inhibition at 30 µM stood at 91% and half-maximal inhibition (IC50) was put at 4.32 ± 0.06 µM.
Regarding `C#CCN1C(=O)/C(=C2/C(=O)N3c4c2cc(F)cc4C(C)(c2ccccc2)CC3(C)C)SC1=S` (centres unmarked) [14a, (Z)-5-(8-Fluoro-4,4,6-trimethyl-2-oxo-6-phenyl-5,6-dihydro-4H-pyrrolo[3,2,1-ij]quinolin-1(2H)-ylidene)-3-(prop-2-yn-1-yl)-2-thioxothiazolidin-4-one], the values for the inhibition at 30 µM at factor Xa [1] and at factor XIa [2] were 36% and 3%, respectively.
On the same counts, the results for `C#CCN1C(=O)/C(=C2/C(=O)N3c4c2cc(F)cc4C(C)(c2ccc(Cl)cc2)CC3(C)C)SC1=S` (centres unmarked) [14b, (Z)-5-(6-(4-Chlorophenyl)-8-fluoro-4,4,6-trimethyl-2-oxo-5,6-dihydro-4H-pyrrolo[3,2,1-ij]quinolin-1(2H)-ylidene)-3-(prop-2-yn-1-yl)-2-thioxothiazolidin-4-one] are 49% and 17%.
Take `CCOc1cc2c3c(c1)C(C)CC(C)(C)N3C(=O)/C2=C1\NC(=S)NC1=O` (centres unmarked) [16a, (Z)-8-Ethoxy-4,4,6-trimethyl-1-(5-oxo-2-thioxoimidazolidin-4-ylidene)-5,6-dihydro-4H-pyrrolo[3,2,1-ij]quinolin-2(1H)-one]: the inhibition at 30 µM on factor Xa [1] stood at 2%; on factor XIa [2], 6%.
On the same counts, the results for `Cc1cc2c3c(c1)C(C)CC(C)(C)N3C(=O)/C2=C1\NC(=S)NC1=O` (centres unmarked) [16b, (Z)-4,4,6,8-Tetramethyl-1-(5-oxo-2-thioxoimidazolidin-4-ylidene)-5,6-dihydro-4H-pyrrolo[3,2,1-ij]quinolin-2(1H)-one] are 31% and 5%.
The like results for `CC1(c2ccccc2)CC(C)(C)N2C(=O)/C(=C3\NC(=S)NC3=O)c3cccc1c32` (centres unmarked) [16c, (Z)-4,4,6-Trimethyl-1-(5-oxo-2-thioxoimidazolidin-4-ylidene)-6-phenyl-5,6-dihydro-4H-pyrrolo[3,2,1-ij]quinolin-2(1H)-one] were, in that order, 45% and 57%.
The like results for `CC1(c2ccccc2)CC(C)(C)N2C(=O)/C(=C3\NC(=S)NC3=O)c3cc(F)cc1c32` (centres unmarked) [16d, (Z)-8-Fluoro-4,4,6-trimethyl-1-(5-oxo-2-thioxoimidazolidin-4-ylidene)-6-phenyl-5,6-dihydro-4H-pyrrolo[3,2,1-ij]quinolin-2(1H)-one] were, in that order, 17% and 2%.
For the compound `Cc1cc2c3c(c1)C(C)(c1ccc(Cl)cc1)CC(C)(C)N3C(=O)/C2=C1\NC(=S)NC1=O` (centres unmarked) [16e, (Z)-6-(4-Chlorophenyl)-4,4,6,8-tetramethyl-1-(5-oxo-2-thioxoimidazolidin-4-ylidene)-5,6-dihydro-4H-pyrrolo[3,2,1-ij]quinolin-2(1H)-one], the inhibition at 30 µM is 59% at factor Xa [1] and 86% at factor XIa [2].
The Ki is the equilibrium dissociation constant of an inhibitor or competing ligand from its target. As for `CC(C)CC(=O)Nc1cc(-c2ccc(C(N)=O)cc2C(=O)O)cc([C@@H]2C[C@](C)(c3ccccc3)c3cc(C(=N)N)ccc3N2)c1` [BMS-654457], on factor XIa [3] (read-out: Ki, factor XIa (Table S2, values in brackets)), the Ki is 0.0002 µM.
For the compound `CS(=O)(=O)c1ccccc1-c1ccc(N2CC[C@H](NS(=O)(=O)CCc3ccc(Cl)s3)C2=O)c(F)c1` [GSV], at factor Xa [4] (known actives of crystal complexes used in validation of docking protocol, no reference given, read-out: IC50, factor Xa (Table S2)), the IC50 was 0.0002 µM.
As for `Cc1cc(=O)[nH]c2ccc(Cl)cc12` [MVN], the IC50 at factor XIa [3] is over 0.0011 µM.
Turning to `O=C(NC[C@H]1CN(c2ccc(N3CCOCC3=O)cc2)C(=O)O1)c1ccc(Cl)s1` [Rivaroxaban, reference compound], the inhibition at 30 µM on factor XIa [2] amounted to 8%. In addition, the “factor-Xa inhibitor potency in words” value at factor Xa [4] is listed as “subnanomolar”.
